Test results from publication PMC9736374, “Design, Synthesis and Antimicrobial Properties of New Tetracyclic Quinobenzothiazine Derivatives” (International Journal of Molecular Sciences, 2022).
Values belong to the molecule of their own block, whether it stands above or below them.

Tests used:
[1] = test system: Staphylococcus aureus ATCC 29213; assay: MIC, microtitration broth method; assay type: cell-based; details: ATCC29213; SA = Staphylococcus aureus ATCC 29213; 24 h, 37 °C
[2] = test system: methicillin-resistant S. aureus SA 3202 (MRSA1); assay: MIC, microtitration broth method; assay type: cell-based; details: Staphylococcus aureus; MRSA1 = SA 3202; 24 h, 37 °C
[3] = test system: methicillin-resistant S. aureus SA 630 (MRSA2); assay: MIC, microtitration broth method; assay type: cell-based; details: Staphylococcus aureus; MRSA2 = SA 630; 24 h, 37 °C
[4] = test system: methicillin-resistant S. aureus 63718 (MRSA3); assay: MIC, microtitration broth method; assay type: cell-based; details: Staphylococcus aureus; MRSA3 = 63718; 24 h, 37 °C
[5] = test system: Enterococcus faecalis ATCC 29212; assay: MIC, microtitration broth method; assay type: cell-based; details: ATCC29212; EF = Enterococcus faecalis; 24 h, 37 °C
[6] = test system: vancomycin-resistant E. faecalis VRE 342B (VRE1); assay: MIC, microtitration broth method; assay type: cell-based, Enterococcus faecalis; details: VRE1 = VRE 342B; 24 h, 37 °C
[7] = test system: vancomycin-resistant E. faecalis VRE 368 (VRE2); assay: MIC, microtitration broth method; assay type: cell-based, Enterococcus faecalis; details: VRE2 = VRE 368; 24 h, 37 °C
[8] = test system: vancomycin-resistant E. faecalis VRE 725B (VRE3); assay: MIC, microtitration broth method; assay type: cell-based, Enterococcus faecalis; details: VRE3 = VRE 725B; 24 h, 37 °C
[9] = test system: M. smegmatis ATCC 700084; assay: In vitro antimycobacterial MIC, broth dilution micro-method; assay type: cell-based, Mycobacterium smegmatis; details: Mycolicibacterium smegmatis, ATCC700084, 72 h; MS = M. smegmatis ATCC 700084; 3 days, 37 °C
[10] = test system: Mycobacterium marinum CAMP 5644; assay: as above; assay type: cell-based; details: CAMP5644, 504 h; MM = Mycobacterium marinum CAMP 5644; 21 days, 28 °C
[11] = test system: Staphylococcus aureus ATCC 29213; assay: MBC, agar aliquot subculture method; assay type: cell-based; details: ATCC29213; SA = Staphylococcus aureus ATCC 29213
[12] = test system: methicillin-resistant S. aureus SA 3202 (MRSA1); assay: MBC, agar aliquot subculture method; assay type: cell-based; details: Staphylococcus aureus; MRSA1 = SA 3202
[13] = test system: methicillin-resistant S. aureus SA 630 (MRSA2); assay: MBC, agar aliquot subculture method; assay type: cell-based; details: Staphylococcus aureus; MRSA2 = SA 630
[14] = test system: methicillin-resistant S. aureus 63718 (MRSA3); assay: MBC, agar aliquot subculture method; assay type: cell-based; details: Staphylococcus aureus; MRSA3 = 63718
[15] = test system: Enterococcus faecalis ATCC 29212; assay: MBC, agar aliquot subculture method; assay type: cell-based; details: ATCC29212; EF = Enterococcus faecalis
[16] = test system: vancomycin-resistant E. faecalis VRE 342B (VRE1); assay: MBC, agar aliquot subculture method; assay type: cell-based, Enterococcus faecalis; details: VRE1 = VRE 342B
[17] = test system: vancomycin-resistant E. faecalis VRE 368 (VRE2); assay: MBC, agar aliquot subculture method; assay type: cell-based, Enterococcus faecalis; details: VRE2 = VRE 368
[18] = test system: vancomycin-resistant E. faecalis VRE 725B (VRE3); assay: MBC, agar aliquot subculture method; assay type: cell-based, Enterococcus faecalis; details: VRE3 = VRE 725B
[19] = test system: normal human dermal fibroblasts (NHDF); assay: In vitro cell viability, WST-1 assay; assay type: cell-based; details: 72 h
Experimental: Compounds were evaluated for their antiproliferative activity using NHDF (normal human dermal fibroblasts, ATCC, Manassas, VA, USA). The cultured cells were kept at 37 °C and 5% CO2. The cells were seeded (1 × 10^4 cells/well/100 μL DMEM supplemented with 10% FCS and streptomycin/penicillin) into 96-well plates (Corning Inc., Corning, NY, USA). Cells were counted using a hemocytometer (Burker chamber) and phase contrast Olympus IX50 microscope equipped with Sony SSC-DC58 AP camera and Olympus DP10 digital camera. The cell viability of the compounds was determined using the Cell Proliferation Reagent WST-1 assay (Roche Molecular Biochemicals, Mannheim, Germany). The examined cells were exposed to the tested compounds (1 mg/mL DMSO stock) for 72 h at various concentrations (0.1–100 μg/mL). The control was included in order to eliminate the DMSO effect at the concentration used. Cell cultures were incubated with WST-1 (10 μL) for 1 h. The absorbance of the samples was measured against a background control at 450 nm using a microplate reader with a reference wavelength at 600 nm. The obtained results are expressed as means of at least two independent experiments performed in triplicate.

[20] = Lipophilicity by RP-TLC; assay type: physicochemical; details: Tris buffer pH 7.4/acetone, read-out: logPTLC
Experimental: The lipophilicity parameters were determined experimentally using reverse phase thin-layer chromatography (RP-TLC). Chromatograms were prepared on RP-18F254s plates (1.05559.0001, Merck, Germany) precoated with nonpolar silicone oil. Plates were developed in glass chromatography chambers previously saturated with vapor of mobile phase. The mobile phase was composed of 0.2M Tris buffer (pH = 7.4) and acetone in different concentrations, i.e., 50%, 60%, 70%, 80 and 90%. The chromatograms were visualised in UV light (λ = 254 nm). Determination of the RF coefficient was carried out twice for all compounds; in all cases, acetone concentrations used. The final value of RF is the mean of the two measurements. The obtained RF coefficient was used to calculate the value of the RM parameter according to the equation: RM = log [(1/RF) − 1]. By extrapolating RM values to zero acetone concentration, a relative RM0 lipophilicity parameter was obtained, according to the equation: RM = RM0 + bC, where b is slope and C is concentration of acetone in mobile phase. Based on RM0 and the calibration curve, the values of logPTLC for compounds 6a–l were determined. The calibration curve was calculated using the relationship between RM0 of the standard molecules (acetanilide, p-kresol, p-bromoacetophenone, benzophenone, anthracene) and the corresponding logP parameters specified by the extraction method, respectively. RM0 parameters of the standard molecules and quinobenzothiazine derivatives 6a–l were determined in the same empirical conditions.

[21] = test system: S. aureus ATCC 29213 respiratory activity; assay: MTT assay of bacterial respiration; assay type: cell-based, Staphylococcus aureus; details: for Conc.: corresponding multiple of MBC with at least 70% inhibition of respiratory activity / Conc.: lowest multiple of MIC with at least 70% inhibition of respiratory activity: S. aureus ATCC 29213, MTT, 24 h; for Decrease in viability < 70% at MIC value (MTT): S. aureus ATCC 29213, at MIC; for S. aureus Respiration Inhibition: at the concentration given
[22] = test system: S. aureus; assay: Crystal violet uptake (membrane permeability); assay type: cell-based, Staphylococcus aureus; details: 4× MIC, 1 h; compared to growth control and 1% Tween 20
Experimental: Phenothiazines are also known for their ability to interact with and damage the cell wall, which has fatal consequences for the microorganism. Therefore, the bacterial suspensions were treated by compounds 6a, 6e, 6g, 6j and 6k (4× MIC) for 1 h. The uptake of crystal violet was expressed as a percentage compared to the original crystal violet solution.

Structure (SMILES): C=CCOc1ccc2c(c1)Nc1c(c[n+](C)c3ccccc13)S2 [Compound 6e, 10-allyloxy-5-methyl-12H-quino[3,4-b][1,4]benzothiazinium chloride]
MIC [1]: 44.8 µM
MIC [2]: 44.8 µM
MIC [3]: 44.8 µM
MIC [4]: 22.4 µM
MIC [5]: 89.6 µM
MIC [6]: 179 µM
MIC [7]: 179 µM
MIC [8]: 89.6 µM
MIC [9]: 22.4 µM
MIC [10]: 11.2 µM
MBC [11]: 44.8 µM
MBC [12]: 44.8 µM
MBC [13]: 44.8 µM
MBC [14]: 22.4 µM
MBC [15]: 89.6 µM
MBC [16]: 179 µM
MBC [17]: 179 µM
MBC [18]: 89.6 µM
IC50 [19]: > 100 µM
chromatographic logP [20]: 2.47
Conc.: corresponding multiple of MBC with at least 70% inhibition of respiratory activity [21]: 2× MIC (2× MBC)
Conc.: lowest multiple of MIC with at least 70% inhibition of respiratory activity [21]: 2× MIC (2× MBC)
Decrease in viability < 70% at MIC value (MTT) [21]: did not show a decrease in viability < 70%
S. aureus Respiration Inhibition [21]: 97.4%
Effect on plasma membrane permeability (uptake of crystal violet) [22]: did not affect plasma membrane permeability

Structure (SMILES): C[n+]1cc2c(c3ccccc31)Nc1cc(OCc3ccccc3)ccc1S2 [Compound 6k, 10-benzyloxy-5-methyl-12H-quino[3,4-b][1,4]benzothiazinium chloride]
MIC [1]: 19.7 µM
MIC [2]: 19.7 µM
MIC [3]: 9.83 µM
MIC [4]: 9.83 µM
MIC [5]: 78.6 µM
MIC [6]: 78.6 µM
MIC [7]: 157 µM
MIC [8]: 157 µM
MIC [9]: 19.7 µM
MIC [10]: 19.7 µM
MBC [11]: 19.7 µM
MBC [12]: 19.7 µM
MBC [13]: 19.7 µM
MBC [14]: 9.83 µM
MBC [15]: 78.6 µM
MBC [16]: 78.6 µM
MBC [17]: 157 µM
MBC [18]: 157 µM
IC50 [19]: > 100 µM
chromatographic logP [20]: 3.48
Conc.: corresponding multiple of MBC with at least 70% inhibition of respiratory activity [21]: 2× MIC (2× MBC)
Conc.: lowest multiple of MIC with at least 70% inhibition of respiratory activity [21]: 2× MIC (2× MBC)
Decrease in viability < 70% at MIC value (MTT) [21]: did not show a decrease in viability < 70%
S. aureus Respiration Inhibition [21]: 97.6%
Effect on plasma membrane permeability (uptake of crystal violet) [22]: did not affect plasma membrane permeability

Structure (SMILES): C[n+]1cc2c(c3ccccc31)Nc1ccc(OCc3ccccc3)cc1S2 [Compound 6j, 9-benzyloxy-5-methyl-12H-quino[3,4-b][1,4]benzothiazinium chloride]
MIC [1]: 9.83 µM
MIC [2]: 4.91 µM
MIC [3]: 9.83 µM
MIC [4]: 2.46 µM
MIC [5]: 19.7 µM
MIC [6]: 19.7 µM
MIC [7]: 78.6 µM
MIC [8]: 39.3 µM
MIC [9]: 9.83 µM
MIC [10]: 2.5 µM
MBC [11]: 9.83 µM
MBC [12]: 9.83 µM
MBC [13]: 9.83 µM
MBC [14]: 2.46 µM
MBC [15]: 39.3 µM
MBC [16]: 19.7 µM
MBC [17]: 78.6 µM
MBC [18]: 39.3 µM
IC50 [19]: 37.7 µM
chromatographic logP [20]: 3.41
S. aureus Respiration Inhibition [21]: 91.3%
Effect on plasma membrane permeability (uptake of crystal violet) [22]: did not affect plasma membrane permeability

Structure (SMILES): C#CCOc1ccc2c(c1)Sc1c[n+](C)c3ccccc3c1N2 [Compound 6g, 9-propargyloxy-5-methyl-12H-quino[3,4-b][1,4]benzothiazinium chloride]
MIC [1]: 45.1 µM
MIC [2]: 45.1 µM
MIC [3]: 45.1 µM
MIC [4]: 45.1 µM
MIC [5]: 90.1 µM
MIC [6]: 90.1 µM
MIC [7]: 90.1 µM
MIC [8]: 90.1 µM
MIC [9]: 22.5 µM
MIC [10]: 11.3 µM
MBC [11]: 45.1 µM
MBC [12]: 45.1 µM
MBC [13]: 45.1 µM
MBC [14]: 45.1 µM
MBC [15]: 90.1 µM
MBC [16]: 90.1 µM
MBC [17]: 90.1 µM
MBC [18]: 90.1 µM
IC50 [19]: > 100 µM
chromatographic logP [20]: 2.11
Conc.: corresponding multiple of MBC with at least 70% inhibition of respiratory activity [21]: 2× MIC (2× MBC)
Conc.: lowest multiple of MIC with at least 70% inhibition of respiratory activity [21]: 2× MIC (2× MBC)
Decrease in viability < 70% at MIC value (MTT) [21]: did not show a decrease in viability < 70%
S. aureus Respiration Inhibition [21]: 96.8%
Effect on plasma membrane permeability (uptake of crystal violet) [22]: did not affect plasma membrane permeability

MIC [1]: 22.3 µM
MIC [2]: 44.6 µM
MIC [3]: 44.6 µM
MIC [4]: 22.3 µM
MIC [5]: 89.1 µM
MIC [6]: 178 µM
MIC [7]: 178 µM
MIC [8]: 89.1 µM
MIC [9]: 22.3 µM
MIC [10]: 22.3 µM
chromatographic logP [20]: 1.99
Structure (SMILES): CCCOc1ccc2c(c1)Nc1c(c[n+](C)c3ccccc13)S2 [Compound 6b, 10-propoxy-5-methyl-12H-quino[3,4-b][1,4]benzothiazinium chloride]
MBC [11]: 44.6 µM
MBC [12]: 44.6 µM
MBC [13]: 44.6 µM
MBC [14]: 22.3 µM
MBC [15]: 89.1 µM
MBC [16]: 178 µM
MBC [17]: 178 µM
MBC [18]: 89.1 µM
IC50 [19]: 65.5 µM

MIC [1]: 39.3 µM
MIC [2]: 39.3 µM
MIC [3]: 78.6 µM
MIC [4]: 39.3 µM
MIC [5]: 157 µM
MIC [6]: 157 µM
MIC [7]: 157 µM
MIC [8]: 157 µM
MIC [9]: 39.3 µM
MIC [10]: 9.83 µM
chromatographic logP [20]: 3.1
Structure (SMILES): C[n+]1cc2c(c3ccccc31)Nc1c(OCc3ccccc3)cccc1S2 [Compound 6l, 11-benzyloxy-5-methyl-12H-quino[3,4-b][1,4]benzothiazinium chloride]
MBC [11]: 39.3 µM
MBC [12]: 78.6 µM
MBC [13]: 78.6 µM
MBC [14]: 39.3 µM
MBC [15]: 157 µM
MBC [16]: 157 µM
MBC [17]: 157 µM
MBC [18]: 157 µM
IC50 [19]: > 100 µM
